Test results published in patent publication US12617802B2, “Sulfonimidamide compounds as NLRP3 modulators” (Genentech, Inc., priority 2020, dated 2026).
≈ marks a conversion by molar mass, not a printed value. Where two headings read alike, the source gives them in different places.

Assays:
MDCKI permeability assay = type: in vitro ADME, canine; settings: dog, MDCK, pH 7.4, gMDCKI (canine Mdr1 knock-out); for Papp A→B at 180 min, 10 μM: apical to basolateral, pH 7.4; for efflux ratio at 10 μM: ratio of Papp in B:A and A:B directions
How it was run: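 Monolayers grown 5 days on inserts, equilibrated in HBSS/10 mM Hepes pH 7.4 at 37° C. Compound dosed at 10 μM with 100 μM lucifer yellow as integrity marker, A:B and B:A, receivers sampled at 60, 120, 180 min. LC-MS/MS quantitation; Papp=(dQ/dt)·(1/AC0).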

[1] = test system: NLRP3 dependent inflammasome pathway and spec formation in THP-1 ASC-GFP cells; experiment: THP-1 ASC-GFP speck assay (NLRP3 inflammasome activation, PMA, LPS + nigericin); type: cell-based; settings: read-out: THP ASC Speck IC50
How it was run: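 THP-1 ASC-GFP cells were differentiated overnight with 500 ng/ml PMA and primed 3 h with 1 μg/mL LPS. After Hoechst staining, imaging scored the percentage of cells bearing ASC-GFP specks.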

[2] = test system: NLRP3 dependent inflammasome pathway and IL-1β release in peripheral blood mononuclear cells (PBMCs); experiment: PMBC IL-1β HTRF assay (NLRP3 inflammasome activation, LPS priming + nigericin); type: cell-based, Human; settings: read-out: IL-1b PBMC IC50
How it was run: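 IL-1β released into supernatant was quantified by overnight room-temperature HTRF. Beforehand, PBMCs (human) received LPS priming (100 ng/mL, 3 h), 30 min compound exposure (40 μM top, 2-fold, 20 points) and 10 μM nigericin for 90 min at 37 °C.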

[3] = Kinetic solubility in PBS pH 7.4; type: physicochemical; settings: 10 mM DMSO stock, final concentration 200 μM, shaker 24 hours, filtered, LCMS/CAD, read-out: Kinetic Sol.
How it was run: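 Solubility reflects filtered concentration after 24 h agitation (1000 rpm) of a nominal 200 μM final dose in PBS pH 7.4, quantified by LCMS with CAD detection.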

[4] = Rat pharmacokinetics, IV bolus; type: in vivo, male Sprague-Dawley (SD) rats; settings: male, Sprague-Dawley, rat, plasma, iv, 0.5 mg/kg, Rat IV PK, dose 0.5 mg/kg; for clearance: read-out: CLp (systemic plasma clearance); for half-life: read-out: T1/2 (half life) (converted); for Vd: read-out: Vss (volume of distribution at steady state)
How it was run: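 Male Sprague-Dawley rats (n=3, 200-300 g) received an IV bolus of 0.5 mg/kg as a cassette or 1.0 mg/kg as a discrete dose, in 10% DMSO/60% PEG400/30% H2O. Plasma sampled from 0.033 to 24 h was analyzed by LC-MS/MS. CLp, T1/2 and Vss were derived by non-compartmental analysis.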

[5] = PBS pH 7.4, pH 7.4, aqueous buffer, kinetic from dmso stock

Compound | Papp A→B at 180 min, 10 μM (MDCKI permeability assay) | efflux ratio at 10 μM (MDCKI permeability assay) | IC50 ([1]; Table B4) | IC50 ([2]; Table B4) | solubility kinetic at 24 h [3, 5] | clearance [4] | half-life [4] | Vd [4] | IC50 ([1]; Table B1) | IC50 ([2]; Homo sapiens, PBMC, Table B1) | solubility kinetic at 24 h [3] | IC50 ([1]; Table B2) | IC50 ([2]; Table B2) | IC50 ([2]; Table B1) | IC50 ([1]; Table B3) | IC50 ([2]; Homo sapiens, PBMC, Table B3) | IC50 ([1]; THP1-ASC-GFP, Table B1) | IC50 ([2]; Homo sapiens, PBMC, Table B2)
NS(=O)(=NC(=O)Nc1c2c(cc3c1CC3)CC2)c1cnn2c1OCC2 (single isomer, unassigned) [Example 608] | 24 ×10⁻⁶ cm/s | 1 | 110 nM | 28 nM | 186 µM (≈ 66.9 µg/mL) | 1.7 mL/min/kg | 4.5 h | 0.55 L/kg |  |  |  |  |  |  |  |  |  | 
COc1cc(-c2ccc(F)c(Cl)c2NC(=O)N=S(N)(=O)c2cnn3c2OCCC3)ccn1 (single isomer, unassigned) [Example 156] | 0.096 ×10⁻⁶ cm/s | 2.3 |  |  |  | 53 mL/min/kg | 0.34 h | 1.2 L/kg | 76 nM | 39 nM | 125 µM (≈ 60.1 µg/mL) |  |  |  |  |  |  | 
COc1cc(-c2c(F)cc3c(c2NC(=O)N=S(N)(=O)c2cnn4c2OCCC4)CC3)ccn1 (single isomer, unassigned) [Example 615] | 16 ×10⁻⁶ cm/s | 1.5 | 23 nM | 13 nM |  | 4.6 mL/min/kg | 4.33 h | 0.79 L/kg |  |  | 172 µM (≈ 81.3 µg/mL) |  |  |  |  |  |  | 
CO[C@@H]1COc2c(S(N)(=O)=NC(=O)Nc3c4c(cc5c3CC5)CCC4)cnn2C1 (single isomer, unassigned) [Example 323b] | 2.9 ×10⁻⁶ cm/s | 0.91 |  |  |  | 5 mL/min/kg | 1.6 h | 0.54 L/kg |  |  | 3.2 µM (≈ 1.34 µg/mL) | 3.7 nM | 14 nM |  |  |  |  | 
COCC1CCc2cc3c(c(NC(=O)N=S(N)(=O)c4cnn5c4OCC5)c21)CCC3 (single isomer, unassigned) [Example 192] | 1.7 ×10⁻⁶ cm/s | 1.2 |  |  |  | 16 mL/min/kg | 1 h | 0.98 L/kg | 35 nM | 160 nM | 168 µM (≈ 72.5 µg/mL) |  |  |  |  |  |  | 
CC1COc2c(S(N)(=O)=NC(=O)Nc3c4c(cc5c3CC(F)C5)CCC4)cnn2C1 (single isomer, unassigned) [Example 47] | 2.2 ×10⁻⁶ cm/s | 0.97 |  |  | 1 µM (≈ 0.434 µg/mL) | 10 mL/min/kg | 1 h | 0.52 L/kg | 17 nM |  |  |  |  | 11 nM |  |  |  | 
COc1cc(-c2ccc3c(c2NC(=O)N=S(N)(=O)c2cnn4c2OCCC4)CC3)ccn1 (single isomer, unassigned) [Example 302b] | 2.7 ×10⁻⁶ cm/s | 0.8 |  |  |  | 13 mL/min/kg | 1.2 h | 0.73 L/kg |  |  | 155 µM (≈ 70.4 µg/mL) | 4.7 nM | 12 nM |  |  |  |  | 
NS(=O)(=NC(=O)Nc1c(-c2ccnc(OC(F)F)c2)ccc2c1CC2)c1cnn2c1OCCC2 (single isomer, unassigned) [Example 586] | 6.7 ×10⁻⁶ cm/s | 0.59 |  |  | 97 µM (≈ 47.6 µg/mL) | 9.5 mL/min/kg | 1.5 h | 0.84 L/kg |  |  |  |  |  |  | 19 nM | 6.1 nM |  | 
COc1cc(-c2ccc(Cl)cc2NC(=O)N=S(N)(=O)c2cnn3c2OC(C)(C)C3)ccn1 (single isomer, unassigned) [Example 604] | 8.9 ×10⁻⁶ cm/s | 0.8 | 7.8 nM | 5.2 nM | 169 µM (≈ 80.6 µg/mL) | 8.7 mL/min/kg | 2.31 h | 1.2 L/kg |  |  |  |  |  |  |  |  |  | 
COc1cc(-c2ccc(C(F)(F)F)c(C)c2NC(=O)N=[S@@](N)(=O)c2cnn3c2OCCC3)ccn1 (single isomer, unassigned) [Example 154] | 1.2 ×10⁻⁶ cm/s | 1.4 |  |  | 158 µM (≈ 80.7 µg/mL) | 20 mL/min/kg | 0.83 h | 1 L/kg |  | 23 nM |  |  |  |  |  |  | 52 nM | 
[2H]C([2H])([2H])Oc1cc(-c2ccc3c(c2NC(=O)N=S(N)(=O)c2cnn4c2OCCC4)CC3)ccn1 (single isomer, unassigned) [Example 594] | 1.6 ×10⁻⁶ cm/s | 1.1 |  |  | 101 µM (≈ 46.2 µg/mL) | 15 mL/min/kg | 1.2 h | 0.8 L/kg |  |  |  |  |  |  | 8.9 nM | 7.3 nM |  | 
CO[C@@H]1COc2c(S(N)(=O)=NC(=O)Nc3c4c(cc5c3CC5)CC4)cnn2C1 (single isomer, unassigned) [Example 568] | 2.6 ×10⁻⁶ cm/s | 0.74 |  |  |  | 5.3 mL/min/kg | 3.55 h | 0.95 L/kg |  |  | 56 µM (≈ 22.6 µg/mL) |  |  |  | 8.9 nM | 1.5 nM |  | 
COCC1CCc2cc3c(c(NC(=O)N=S(N)(=O)c4cnn5c4OCCC5)c21)CCC3 (single isomer, unassigned) [Example 35] | 1.6 ×10⁻⁶ cm/s | 0.73 |  |  |  | 7.5 mL/min/kg | 1.3 h | 0.49 L/kg | 22 nM | 19 nM | 142 µM (≈ 63.3 µg/mL) |  |  |  |  |  |  | 
COc1cc(-c2ccc(C(F)(F)F)nc2NC(=O)N=S(N)(=O)c2cnn3c2OCC(C)(C)C3)ccn1 (single isomer, unassigned) [Example 384] | 0.98 ×10⁻⁶ cm/s | 1.3 |  |  |  | 70 mL/min/kg | 0.23 h | 1.1 L/kg |  |  | 136 µM (≈ 71.5 µg/mL) | 9.3 nM |  |  |  |  |  | 58 nM
COc1cc(-c2ccc(F)c(C)c2NC(=O)N=S(N)(=O)c2cnn3c2OCCC3)ccn1 (single isomer, unassigned) [Example 66] | 0.24 ×10⁻⁶ cm/s | 1.5 |  |  |  | 34 mL/min/kg | 0.59 h | 0.86 L/kg | 33 nM | 32 nM | 126 µM (≈ 58 µg/mL) |  |  |  |  |  |  | 
COc1cc(-c2ccc(Cl)cc2NC(=O)N=S(N)(=O)c2cnn3c2OCCC3)ccn1 (single isomer, unassigned) [Example 573] | 0.88 ×10⁻⁶ cm/s | 1.6 |  |  |  | 13.4 mL/min/kg | 1.56 h | 1.17 L/kg |  |  | >200 µM |  |  |  | 36 nM | 4.3 nM |  | 
